From ChEMBL document CHEMBL5465560, “Selectivity Literature for EUbOPEN Chemogenomic Library” (2024)

Columns and labels:
[1] = biological target: Protein polybromo-1 (Homo sapiens) (UniProt Q86U86); assay: Selectivity interaction (Human bromodomain panel (DSF assay)) EUB0000233b PBRM1
[2] = biological target: Calcium/calmodulin-dependent protein kinase kinase 1 (Homo sapiens) (UniProt Q8N5S9); assay: Selectivity interaction (KinomeScan (DiscoverX)) EUB0000229b CAMKK1; settings: at 10 µM
[3] = biological target: Serine/threonine-protein kinase 35 (Homo sapiens) (UniProt Q8TDR2); assay: Selectivity interaction (KinomeScan (DiscoverX)) EUB0000595a STK35; settings: at 10 µM
[4] = biological target: T1, Serine/threonine-protein kinase RIO3 (Homo sapiens) (UniProt O14730); assay: Selectivity interaction (KinomeScan (DiscoverX)) EUB0000595a RIOK3; settings: at 10 µM
T1 sequence (whole entry): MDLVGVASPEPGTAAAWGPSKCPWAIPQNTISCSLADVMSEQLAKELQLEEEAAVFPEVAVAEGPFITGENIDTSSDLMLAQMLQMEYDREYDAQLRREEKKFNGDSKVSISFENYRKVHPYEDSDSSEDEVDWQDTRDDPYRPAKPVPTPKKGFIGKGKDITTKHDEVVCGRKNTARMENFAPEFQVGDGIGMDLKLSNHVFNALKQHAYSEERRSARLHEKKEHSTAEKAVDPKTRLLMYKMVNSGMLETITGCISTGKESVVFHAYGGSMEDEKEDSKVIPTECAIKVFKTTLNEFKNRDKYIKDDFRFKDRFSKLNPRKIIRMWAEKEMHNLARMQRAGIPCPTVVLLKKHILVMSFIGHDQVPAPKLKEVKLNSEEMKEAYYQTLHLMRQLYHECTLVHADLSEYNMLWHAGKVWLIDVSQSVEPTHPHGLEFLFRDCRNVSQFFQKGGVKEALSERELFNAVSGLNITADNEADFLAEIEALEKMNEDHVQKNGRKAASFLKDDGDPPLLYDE

[5] = biological target: TGF-beta receptor type-2 (Homo sapiens) (UniProt P37173); assay: Selectivity interaction (KinomeScan (DiscoverX)) EUB0000045b TGFBR2
[6] = biological target: Serine/threonine-protein kinase SBK1 (Homo sapiens) (UniProt Q52WX2); assay: Selectivity interaction (KinomeScan (DiscoverX)) EUB0001079a SBK1; settings: at 1 µM
[7] = biological target: Tyrosine-protein kinase HCK (Homo sapiens) (UniProt P08631); assay: Selectivity interaction (KinomeScan (DiscoverX)) EUB0001079a HCK; settings: at 1 µM
[8] = biological target: Tyrosine-protein kinase Blk (Homo sapiens) (UniProt P51451); assay: Selectivity interaction (KinomeScan (DiscoverX)) EUB0000666a BLK; settings: at 10 µM
[9] = biological target: Phosphatidylinositol 4-phosphate 5-kinase type-1 alpha (Homo sapiens) (UniProt Q99755); settings: at 10 µM
[10] = biological target: Tyrosine-protein kinase JAK1 (Homo sapiens, UniProt P23458); assay: Selectivity interaction (KinomeScan (DiscoverX)) EUB0001049a JAK1; settings: at 1 µM
[11] = biological target: T2, Protein kinase C zeta type (Homo sapiens) (UniProt Q05513); assay: Selectivity interaction (Millipore kinase profiler) EUB0000124b PRKCZ; settings: at 10 µM
T2 sequence (whole entry): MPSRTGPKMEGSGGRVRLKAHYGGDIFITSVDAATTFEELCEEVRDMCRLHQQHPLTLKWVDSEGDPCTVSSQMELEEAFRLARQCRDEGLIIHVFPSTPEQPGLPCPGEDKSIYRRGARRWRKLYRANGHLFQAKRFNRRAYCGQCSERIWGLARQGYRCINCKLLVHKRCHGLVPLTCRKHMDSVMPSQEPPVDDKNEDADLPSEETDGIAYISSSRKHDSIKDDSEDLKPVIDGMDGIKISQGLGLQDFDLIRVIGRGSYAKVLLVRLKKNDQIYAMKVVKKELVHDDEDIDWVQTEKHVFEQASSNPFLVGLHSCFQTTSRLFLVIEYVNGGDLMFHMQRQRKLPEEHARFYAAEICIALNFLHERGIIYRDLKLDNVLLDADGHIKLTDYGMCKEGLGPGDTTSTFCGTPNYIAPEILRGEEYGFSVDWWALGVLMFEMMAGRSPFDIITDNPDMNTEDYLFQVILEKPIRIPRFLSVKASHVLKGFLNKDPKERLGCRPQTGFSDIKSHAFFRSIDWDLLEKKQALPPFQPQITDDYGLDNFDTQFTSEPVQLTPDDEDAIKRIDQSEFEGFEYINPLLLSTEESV

[12] = biological target: Protein kinase C beta type (Homo sapiens, UniProt P05771); assay: Selectivity interaction (Upstate Kinase Profiler service (Millipore)) EUB0000056c PRKCB; settings: at 1 µM
[13] = biological target: Proto-oncogene tyrosine-protein kinase Src (Homo sapiens, UniProt P12931); assay: Selectivity interaction (ProQinase) EUB0000171b SRC
Misshapen-like kinase 1 = Misshapen-like kinase 1 (Homo sapiens, UniProt Q8N4C8); assay: Selectivity interaction (KinomeScan (DiscoverX)) EUB0001619a MINK1; settings: at 1 µM
[14] = biological target: 5'-AMP-activated protein kinase catalytic subunit alpha-2 (Homo sapiens) (UniProt P54646); assay: Selectivity interaction (ActivX KiNativ screen (ex vivo kinase selectivity in human PBMCs)) EUB0001619a PRKAA2; format: cell-based; settings: PBMC, at 1 µM
[15] = biological target: Serine/threonine-protein kinase 25 (Homo sapiens) (UniProt O00506); assay: Selectivity interaction (SelectScreen profiling (Invitrogen)) EUB0000607a STK25; settings: at 2 µM
[16] = biological target: Tyrosine-protein kinase receptor UFO (Homo sapiens) (UniProt P30530); assay: Selectivity interaction (SelectScreen profiling (Invitrogen)) EUB0000607a AXL; settings: at 2 µM
[17] = biological target: Serine/threonine-protein kinase SBK1 (Homo sapiens) (UniProt Q52WX2); assay: Selectivity interaction (KinomeScan (DiscoverX)) EUB0000655a SBK1; settings: at 10 µM
[18] = biological target: T3, Membrane-associated tyrosine- and threonine-specific cdc2-inhibitory kinase (Homo sapiens) (UniProt Q99640); assay: Selectivity interaction (KinomeScan (DiscoverX)) EUB0000092b PKMYT1; settings: at 10 µM
T3 sequence (whole entry): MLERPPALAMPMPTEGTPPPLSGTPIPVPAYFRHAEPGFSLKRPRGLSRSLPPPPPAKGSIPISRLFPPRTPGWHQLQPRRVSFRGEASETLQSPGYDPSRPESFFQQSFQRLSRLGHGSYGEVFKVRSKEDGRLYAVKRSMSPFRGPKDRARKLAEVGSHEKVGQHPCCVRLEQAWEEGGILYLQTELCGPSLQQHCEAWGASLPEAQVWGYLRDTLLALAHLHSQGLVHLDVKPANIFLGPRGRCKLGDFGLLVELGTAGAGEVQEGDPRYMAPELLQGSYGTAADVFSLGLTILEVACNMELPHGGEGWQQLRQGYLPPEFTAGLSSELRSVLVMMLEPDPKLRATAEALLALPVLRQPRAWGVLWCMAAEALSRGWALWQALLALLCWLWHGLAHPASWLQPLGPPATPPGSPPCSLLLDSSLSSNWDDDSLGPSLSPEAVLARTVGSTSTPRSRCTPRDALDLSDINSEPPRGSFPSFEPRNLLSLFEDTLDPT

Serine/threonine-protein kinase SBK1 (Homo sapiens), sequence (Q52WX2 whole entry): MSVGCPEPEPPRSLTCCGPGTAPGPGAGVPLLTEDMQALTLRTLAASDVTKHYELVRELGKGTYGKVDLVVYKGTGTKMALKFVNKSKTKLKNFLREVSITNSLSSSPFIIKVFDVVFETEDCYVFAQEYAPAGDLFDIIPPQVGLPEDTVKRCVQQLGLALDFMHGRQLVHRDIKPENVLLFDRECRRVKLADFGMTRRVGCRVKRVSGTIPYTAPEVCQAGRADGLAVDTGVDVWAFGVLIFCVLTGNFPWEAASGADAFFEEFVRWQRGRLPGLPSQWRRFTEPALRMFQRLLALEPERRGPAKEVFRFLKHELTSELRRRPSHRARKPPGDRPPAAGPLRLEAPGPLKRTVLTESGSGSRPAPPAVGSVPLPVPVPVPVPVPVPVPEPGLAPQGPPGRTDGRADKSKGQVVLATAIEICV
TGF-beta receptor type-2 (Homo sapiens), sequence (P37173 whole entry): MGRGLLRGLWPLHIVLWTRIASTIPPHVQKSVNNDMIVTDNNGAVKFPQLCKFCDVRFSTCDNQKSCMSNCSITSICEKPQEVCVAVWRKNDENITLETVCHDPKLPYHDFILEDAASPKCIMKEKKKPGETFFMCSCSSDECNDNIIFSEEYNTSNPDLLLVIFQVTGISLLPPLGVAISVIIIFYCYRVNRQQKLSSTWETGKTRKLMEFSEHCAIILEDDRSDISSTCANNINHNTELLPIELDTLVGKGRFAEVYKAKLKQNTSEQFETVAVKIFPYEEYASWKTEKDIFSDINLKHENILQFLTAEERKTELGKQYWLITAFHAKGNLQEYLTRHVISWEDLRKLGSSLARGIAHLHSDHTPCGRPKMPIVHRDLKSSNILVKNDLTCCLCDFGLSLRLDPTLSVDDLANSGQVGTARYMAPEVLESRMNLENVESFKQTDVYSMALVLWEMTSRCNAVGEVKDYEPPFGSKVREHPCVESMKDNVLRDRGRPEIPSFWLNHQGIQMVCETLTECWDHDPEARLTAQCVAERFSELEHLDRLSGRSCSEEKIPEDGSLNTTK
Proto-oncogene tyrosine-protein kinase Src, sequence (P12931 2-536 limits assumed): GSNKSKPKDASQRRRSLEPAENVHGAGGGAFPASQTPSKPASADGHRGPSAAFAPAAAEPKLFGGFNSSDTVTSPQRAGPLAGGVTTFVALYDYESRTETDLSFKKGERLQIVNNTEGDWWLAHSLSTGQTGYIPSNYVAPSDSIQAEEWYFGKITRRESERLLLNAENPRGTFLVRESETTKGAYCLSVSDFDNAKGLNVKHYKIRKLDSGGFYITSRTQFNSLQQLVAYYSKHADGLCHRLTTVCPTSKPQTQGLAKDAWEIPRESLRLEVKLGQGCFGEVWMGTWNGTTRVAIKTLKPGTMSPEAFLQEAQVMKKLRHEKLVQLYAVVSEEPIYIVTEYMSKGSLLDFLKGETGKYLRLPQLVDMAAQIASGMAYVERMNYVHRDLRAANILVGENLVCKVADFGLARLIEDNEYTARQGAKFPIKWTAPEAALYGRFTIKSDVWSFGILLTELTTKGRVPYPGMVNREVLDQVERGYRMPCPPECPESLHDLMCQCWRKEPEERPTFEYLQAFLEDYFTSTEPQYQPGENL
Tyrosine-protein kinase receptor UFO (Homo sapiens), sequence (P30530 whole entry): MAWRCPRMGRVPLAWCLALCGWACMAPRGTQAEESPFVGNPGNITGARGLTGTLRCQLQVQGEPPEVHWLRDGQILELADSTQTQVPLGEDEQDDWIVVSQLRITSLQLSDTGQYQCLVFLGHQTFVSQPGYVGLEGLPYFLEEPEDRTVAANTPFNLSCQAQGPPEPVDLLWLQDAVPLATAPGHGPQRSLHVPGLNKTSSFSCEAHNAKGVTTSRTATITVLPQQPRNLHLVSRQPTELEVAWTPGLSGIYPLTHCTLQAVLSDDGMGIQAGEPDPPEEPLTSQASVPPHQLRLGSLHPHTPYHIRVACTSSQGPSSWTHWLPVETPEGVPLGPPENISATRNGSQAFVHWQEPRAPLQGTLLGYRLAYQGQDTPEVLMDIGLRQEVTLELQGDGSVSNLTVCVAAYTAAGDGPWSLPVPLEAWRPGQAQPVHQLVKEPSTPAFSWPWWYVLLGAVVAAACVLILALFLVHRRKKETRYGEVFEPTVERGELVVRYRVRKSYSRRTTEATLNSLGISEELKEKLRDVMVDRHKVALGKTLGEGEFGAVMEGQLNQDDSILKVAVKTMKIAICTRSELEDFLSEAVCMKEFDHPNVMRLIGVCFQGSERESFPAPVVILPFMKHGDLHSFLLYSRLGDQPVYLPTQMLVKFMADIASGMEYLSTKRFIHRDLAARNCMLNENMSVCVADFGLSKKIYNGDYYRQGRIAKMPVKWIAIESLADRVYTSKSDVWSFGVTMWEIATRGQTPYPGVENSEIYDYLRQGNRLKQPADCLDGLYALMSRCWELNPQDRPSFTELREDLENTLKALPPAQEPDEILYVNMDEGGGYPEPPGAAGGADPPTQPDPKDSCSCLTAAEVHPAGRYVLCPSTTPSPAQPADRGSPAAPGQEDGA
Serine/threonine-protein kinase 25 (Homo sapiens), sequence (O00506 whole entry, looked up): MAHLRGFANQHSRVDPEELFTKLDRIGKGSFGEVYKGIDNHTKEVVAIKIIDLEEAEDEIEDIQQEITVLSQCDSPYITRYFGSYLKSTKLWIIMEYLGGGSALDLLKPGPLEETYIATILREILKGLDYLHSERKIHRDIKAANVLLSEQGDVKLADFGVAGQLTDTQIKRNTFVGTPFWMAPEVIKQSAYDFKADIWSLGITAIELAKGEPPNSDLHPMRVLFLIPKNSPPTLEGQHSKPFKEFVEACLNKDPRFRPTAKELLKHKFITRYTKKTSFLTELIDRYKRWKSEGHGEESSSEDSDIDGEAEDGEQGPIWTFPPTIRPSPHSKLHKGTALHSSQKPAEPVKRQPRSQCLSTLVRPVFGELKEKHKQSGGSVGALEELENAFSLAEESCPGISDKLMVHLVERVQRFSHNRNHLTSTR
Tyrosine-protein kinase Blk (Homo sapiens), sequence (P51451 2-505 limits assumed): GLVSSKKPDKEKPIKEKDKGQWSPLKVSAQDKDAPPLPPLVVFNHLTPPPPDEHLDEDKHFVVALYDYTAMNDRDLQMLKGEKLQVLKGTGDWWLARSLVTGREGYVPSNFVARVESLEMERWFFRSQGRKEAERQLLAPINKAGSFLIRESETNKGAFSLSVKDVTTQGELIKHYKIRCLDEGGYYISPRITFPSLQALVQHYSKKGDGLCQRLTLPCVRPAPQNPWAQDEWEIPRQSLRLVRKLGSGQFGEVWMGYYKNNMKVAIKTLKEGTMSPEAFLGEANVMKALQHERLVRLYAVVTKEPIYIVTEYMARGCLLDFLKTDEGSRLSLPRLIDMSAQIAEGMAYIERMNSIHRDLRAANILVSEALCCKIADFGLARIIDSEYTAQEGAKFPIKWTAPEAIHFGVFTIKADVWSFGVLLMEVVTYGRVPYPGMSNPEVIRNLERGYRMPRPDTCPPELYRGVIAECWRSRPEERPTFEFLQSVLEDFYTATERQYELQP
Tyrosine-protein kinase JAK1, sequence (P23458 whole entry): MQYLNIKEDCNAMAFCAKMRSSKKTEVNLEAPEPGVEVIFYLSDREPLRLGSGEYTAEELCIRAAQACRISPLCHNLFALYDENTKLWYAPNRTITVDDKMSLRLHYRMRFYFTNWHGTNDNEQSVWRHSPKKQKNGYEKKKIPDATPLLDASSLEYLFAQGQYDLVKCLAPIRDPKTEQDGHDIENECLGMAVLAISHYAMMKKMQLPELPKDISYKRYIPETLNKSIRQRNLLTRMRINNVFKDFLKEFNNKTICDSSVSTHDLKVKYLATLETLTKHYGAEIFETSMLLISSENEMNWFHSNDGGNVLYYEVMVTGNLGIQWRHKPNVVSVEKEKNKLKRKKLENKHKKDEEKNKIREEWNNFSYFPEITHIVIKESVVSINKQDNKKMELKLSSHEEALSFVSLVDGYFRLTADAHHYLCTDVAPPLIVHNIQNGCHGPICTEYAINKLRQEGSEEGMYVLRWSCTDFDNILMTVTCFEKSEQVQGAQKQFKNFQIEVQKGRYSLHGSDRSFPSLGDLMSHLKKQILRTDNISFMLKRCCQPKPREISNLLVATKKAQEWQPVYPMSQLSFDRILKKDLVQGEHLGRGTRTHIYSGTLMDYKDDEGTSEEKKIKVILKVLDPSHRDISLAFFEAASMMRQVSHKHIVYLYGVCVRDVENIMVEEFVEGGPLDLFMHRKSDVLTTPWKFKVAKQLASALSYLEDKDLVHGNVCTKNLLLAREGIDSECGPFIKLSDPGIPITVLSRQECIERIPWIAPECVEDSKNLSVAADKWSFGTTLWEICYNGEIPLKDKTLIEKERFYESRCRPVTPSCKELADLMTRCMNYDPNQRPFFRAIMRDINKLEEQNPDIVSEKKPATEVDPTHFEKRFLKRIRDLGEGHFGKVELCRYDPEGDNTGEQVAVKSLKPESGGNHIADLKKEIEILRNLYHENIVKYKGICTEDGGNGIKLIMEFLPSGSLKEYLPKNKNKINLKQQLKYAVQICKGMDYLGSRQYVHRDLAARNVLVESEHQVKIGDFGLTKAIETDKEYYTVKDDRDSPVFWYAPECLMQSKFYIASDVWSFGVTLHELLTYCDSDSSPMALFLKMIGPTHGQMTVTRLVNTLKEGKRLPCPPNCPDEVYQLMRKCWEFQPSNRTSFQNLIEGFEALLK
Tyrosine-protein kinase HCK (Homo sapiens), sequence (P08631 2-526 limits assumed): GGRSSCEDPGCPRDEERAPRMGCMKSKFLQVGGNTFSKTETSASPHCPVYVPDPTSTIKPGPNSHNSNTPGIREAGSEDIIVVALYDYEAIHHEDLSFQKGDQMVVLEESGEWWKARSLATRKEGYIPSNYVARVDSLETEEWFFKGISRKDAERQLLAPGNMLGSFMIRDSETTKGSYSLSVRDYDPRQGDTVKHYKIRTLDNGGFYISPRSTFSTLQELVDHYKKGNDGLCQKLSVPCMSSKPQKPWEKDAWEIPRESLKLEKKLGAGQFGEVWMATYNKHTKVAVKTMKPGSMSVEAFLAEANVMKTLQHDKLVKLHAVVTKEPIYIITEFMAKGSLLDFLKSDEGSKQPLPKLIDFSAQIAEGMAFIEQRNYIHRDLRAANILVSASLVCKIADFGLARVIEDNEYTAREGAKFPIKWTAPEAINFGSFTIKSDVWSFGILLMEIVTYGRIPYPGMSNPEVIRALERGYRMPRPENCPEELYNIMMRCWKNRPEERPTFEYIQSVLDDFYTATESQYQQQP

Question: For `CN(C)CCCOc1ccc(-c2cc(NCCCn3cccn3)nc(S(C)(=O)=O)n2)cc1`, which dTM [1] is on record?
Answer: The dTM was less than 2 K.

Question: `COc1cc(N(C)c2ccnc3ccc(C(F)(F)F)cc23)cc(OC)c1OC` was tested. Which % binding [2] did it give?
Answer: Its % binding is 97%.

Question: Which results are given for `COCC(=O)NC/C=C/c1ccc2ncnc(Nc3ccc(Oc4ccc(C)nc4)c(C)c3)c2c1` [CP-724714]?
Answer: % of control [3]: 65%; % of control [4]: 100%

Question: How did the % of control ([5]; at 1 µM) turn out when `C=CC(=O)Nc1cc(-n2c(=O)ccc3cnc4ccc(-c5ccc(NS(C)(=O)=O)cc5)cc4c32)ccc1C` was run?
Answer: Its % of control is 100%.

Question: And the % of control ([5]; at 10 µM)?
Answer: The % of control was 100%.

Question: For `Nc1cnc(N2CCc3cc(S(=O)(=O)Nc4c(F)cc(Cl)cc4F)cc(N4CCCC4=O)c32)nc1` [TP-020n], which % of control [6] is on record?
Answer: Its % of control is 83%.

Question: What about the % of control [7] of the same molecule?
Answer: The % of control was 100%.

Question: With `O=C(NOC[C@H](O)CO)c1ccc(F)c(F)c1Nc1ccc(I)cc1F` as the molecule, how does the % of control [8] read?
Answer: The % of control was 83%.

Question: For `Cc1cc([C@@H](C)Nc2ccccc2C(=O)O)c2nc(N3CCOCC3)cc(=O)n2c1` [AZD-6482], which % of control [9] is on record?
Answer: The % of control was 100%.

Question: Which % of control [10] does the source give for `COc1cc(Nc2nc(C)cc(-c3cnn4nc(OC)ccc34)n2)cc(C(F)(F)F)c1` here?
Answer: Its % of control is 85%.

Question: `CC(=O)Nc1cccc(-n2c(=O)n(C3CC3)c(=O)c3c(Nc4ccc(I)cc4F)n(C)c(=O)c(C)c32)c1` was tested. Which % of control [11] did it give?
Answer: Its % of control is 102%.

Question: With `Cc1ccc(-c2ccc3c(ccc4sc5c(c43)NC[C@@H](C)NC5=O)n2)cn1` as the molecule, how does the % of inhibition [12] read?
Answer: The % of inhibition was 13%.

Question: With `C=CC(=O)Nc1cccc(C(=O)Nc2ccc(Nc3cc(-c4[nH]c(SC)nc4C)ccn3)cc2)c1` as the molecule, how does the % of control ([13]; at 1 µM) read?
Answer: Its % of control is 98%.

Question: What about the % of control ([13]; at 5 µM) of the same molecule?
Answer: The % of control was 86%.

Question: What does the source list for `N#Cc1cccc(-c2c[nH]c3ncnc(N4CCOCC4)c23)c1`?
Answer: % of control (Misshapen-like kinase 1): 46%; % of inhibition [14]: 33%

Question: How did the % of inhibition [15] turn out when `CNC(=O)Nc1ccc(-c2nc(N3CC4CCC(C3)O4)c3cnn(C4CCC5(CC4)OCCO5)c3n2)cc1` was run?
Answer: Its % of inhibition is 2%.

Question: And the % of inhibition [16]?
Answer: Its % of inhibition is 2%.

Question: For `CN(C)CCOc1ccc(-c2nc(-c3ccncc3)c(-c3ccc4c(c3)CC/C4=N\O)[nH]2)cc1`, which % of control [17] is on record?
Answer: The % of control was 83%.

Question: Which % of control [18] does the source give for `CCC(=O)N1CCN(c2ccc(-n3c(=O)ccc4cnc5ccc(-c6cnc7ccccc7c6)cc5c43)cc2C(F)(F)F)CC1` here?
Answer: The % of control was 52%.
